Reference: patent US10883142B2, “Risk assessment for phenytoin-induced adverse drug reactions” (priority 2011, dated 2021)

Key:
[1] = Phenytoin plasma concentration during ADR onset, HPLC analysis of patients' plasma; format: in vivo, human
Method: In this study, the phenytoin concentrations during ADR onset were determined from patients' plasma by HPLC analysis and estimated by non-linear pharmacokinetics formula: […]
Therapeutic levels of phenytoin are usually between 10-20 μg/ml. […] We also compared the phenytoin plasma levels of patients who carried CYP2Cs variants. […] Defective metabolism of phenytoin may increase the risk of drug accumulation, and leads to its risk to induce severe hypersensitivity reactions, such as SJS/TEN and DRESS.

[2] = patients who received phenytoin; cited from earlier work
[3] = normal therapeutic range, plasma; cited from earlier work

O=C1NC(=O)C(c2ccccc2)(c2ccccc2)N1 [phenytoin]
phenytoin concentrations ([1]; 5 phenytoin-ADRs patients who carry CYP2C9*3 variant (of 23 analysed)): higher than 20 μg/ml
phenytoin plasma levels ([1]; patients with phenytoin-SJS/TEN, P=0.006 vs. tolerant control): 40 to 50 µg/mL
phenytoin plasma levels ([1]; tolerant control patients, after taking drug): 5 to 15 µg/mL
patients who developed hypersensitivity reactions [2]: more than 19%
therapeutic levels of phenytoin [3]: 10 to 20 µg/mL
